Measured values reported in US9394310B2, “Carbocycle-substituted purine and 7-deazapurine compounds” (Epizyme, Inc., priority 2010, dated 2016).
Where a name gives a salt, the structure may show the parent alone.

The molecules below were run against T1, DOT1L (1-416) (Homo sapiens, UniProt Q8TEK3) (assay: Determination of IC50: DOT1L (1-416) methyltransferase assay with 3H-SAM and oligonucleosome, Flashplate scintillation readout). Conditions: 0.25 nM DOT1L (1-416), 30 min preincubation, 120 min reaction at room temperature, oligonucleosome substrate.
T1 construct: 40 μl per well of DOT1L (1-416) (0.25 nM final concentration in assay buffer)
T1 sequence (Q8TEK3 1-416): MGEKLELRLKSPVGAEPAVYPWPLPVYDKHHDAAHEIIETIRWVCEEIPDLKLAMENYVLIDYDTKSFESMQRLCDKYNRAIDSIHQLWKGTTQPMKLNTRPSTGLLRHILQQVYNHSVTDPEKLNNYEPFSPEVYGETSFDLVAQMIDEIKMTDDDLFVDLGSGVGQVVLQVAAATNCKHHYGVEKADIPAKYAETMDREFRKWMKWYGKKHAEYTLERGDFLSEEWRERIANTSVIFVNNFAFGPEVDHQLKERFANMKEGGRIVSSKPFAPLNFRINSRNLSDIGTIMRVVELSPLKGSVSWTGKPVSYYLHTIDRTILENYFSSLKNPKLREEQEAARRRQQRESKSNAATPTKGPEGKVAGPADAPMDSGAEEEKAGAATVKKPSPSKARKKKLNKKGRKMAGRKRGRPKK
Format: biochemical
Method: Compound was serially diluted 3 fold in DMSO for 10 points and 1 μl was plated in a 384 well microtiter plate. Positive control (100% inhibition standard) was 2.5 uM final concentration of S-adenosyl-L-homocysteine and negative control (0% inhibition standard) contained 1 μl of DMSO. Compound was then incubated for 30 minutes with 40 μl per well of DOT1L (1-416) (0.25 nM final concentration in assay buffer: 20 mM TRIS, pH 8.0, 10 mM NaCl, 0.002% Tween20, 0.005% Bovine Skin Gelatin, 100 mM KCl, and 0.5 mM DTT). 10 μl per well of substrate mix (same assay buffer with 200 nM S—[methyl-^3H]-adenosyl-L methionine, 600 nM of unlabeled […], and 20 nM oligonucleosome) was added to initiate the reaction. Reaction was incubated for 120 minutes at room temperature and quenched with 10 μl per well of 100 μM S-methyl-adenosyl-L methionine. For detection, substrate from 50 μl of reaction was immobilized on a 384 well Streptavidin coated Flashplate (Perkin Elmer) (also coated with 0.2% polyethyleneimine) and read on a Top Count scintillation counter (Perkin Elmer).

| IC50 | SMILES |
| --- | --- |
| < 100 nM | CC(C)N(CCCCc1nc2cc(C(C)(C)C)ccc2[nH]1)C[C@H]1C[C@@H](n2ccc3c(N)ncnc32)[C@H](O)[C@@H]1O [Compound 1, (1R,2S,3R,5R)-3-(4-amino-7H-pyrrolo[2,3-d]pyrimidin-7-yl)-5-(((4-(5-tert-butyl-1H-benzo[d]imidazol-2-yl)butyl)(isopropyl)amino)methyl)-cyclopentane-1,2-diol] |
| < 100 nM | CC(C)N(CCCCc1nc2cc(C(C)(C)C)ccc2[nH]1)C[C@@H]1C[C@@H](n2ccc3c(N)ncnc32)[C@H](O)[C@@H]1O [Compound 2, (1R,2S,3R,5S)-3-(4-amino-7H-pyrrolo[2,3-d]pyrimidin-7-yl)-5-(((4-(5-tert-butyl-1H-benzo[d]imidazol-2-yl)butyl)(isopropyl)amino)methyl)-cyclopentane-1,2-diol] |
| < 1000 nM | CN(CCCNC(=O)Nc1ccc(C(C)(C)C)cc1)C[C@@H]1C[C@@H](n2cnc3c(N)ncnc32)[C@H](O)[C@@H]1O [Compound 3, 1-(3-((((1S,2R,3S,4R)-4-(6-amino-9H-purin-9-yl)-2,3-dihydroxycyclopentyl)methyl)-(methyl)amino)propyl)-3-(4-(tert-butyl)phenyl)urea] |
| < 100 nM | CC(C)N(CCCCc1nc2cc(C(F)(F)F)c(Cl)cc2[nH]1)C[C@H]1C[C@@H](n2ccc3c(NC4CC4)ncnc32)[C@H](O)[C@@H]1O [Compound 4, (1S,2R,3R,5R)-3-(((4-(6-chloro-5-(trifluoromethyl)-1H-benzo[d]imidazol-2-yl)butyl)(isopropyl)amino)methyl)-5-(4-(cyclopropylamino)-7H-pyrrolo[2,3-d]pyrimidin-7-yl)cyclopentane-1,2-diol] |
| < 100 nM | CN(CCCCc1nc2cc(C(F)(F)F)c(Cl)cc2[nH]1)C[C@H]1C[C@@H](n2ccc3c(NC4CC4)ncnc32)[C@H](O)[C@@H]1O [Compound 5, (1S,2R,3R,5R)-3-(((4-(6-chloro-5-(trifluoromethyl)-1H-benzo[d]imidazol-2-yl)butyl)(methyl)amino)methyl)-5-(4-(cyclopropylamino)-7H-pyrrolo[2,3-d]pyrimidin-7-yl)cyclopentane-1,2-diol] |
| < 100 nM | CC(C)N(CCCCc1nc2ccc(C(F)(F)F)cc2[nH]1)C[C@H]1C[C@@H](n2ccc3c(NC4CC4)ncnc32)[C@H](O)[C@@H]1O [Compound 6, (1R,2S,3R,5R)-3-(4-(cyclopropylamino)-7H-pyrrolo[2,3-d]pyrimidin-7-yl)-5-((isopropyl-(4-(6-(trifluoromethyl)-1H-benzo[d]imidazol-2-yl)butyl)amino)methyl)-cyclopentane-1,2-diol] |
| < 100 nM | CN(CCCCc1nc2ccc(C(F)(F)F)cc2[nH]1)C[C@H]1C[C@@H](n2ccc3c(NC4CC4)ncnc32)[C@H](O)[C@@H]1O [Compound 7, (1R,2S,3R,5R)-3-(4-(cyclopropylamino)-7H-pyrrolo[2,3-d]pyrimidin-7-yl)-5-((methyl(4-(6-(trifluoromethyl)-1H-benzo[d]imidazol-2-yl)butyl)amino)methyl)-cyclopentane-1,2-diol] |
| < 100 nM | CN(CCCCc1nc2cc(Cl)c(Cl)cc2[nH]1)C[C@H]1C[C@@H](n2ccc3c(NC4CC4)ncnc32)[C@H](O)[C@@H]1O [Compound 8, (1R,2S,3R,5R)-3-(4-(cyclopropylamino)-7H-pyrrolo[2,3-d]pyrimidin-7-yl)-5-(((4-(5,6-dichloro-1H-benzo[d]imidazol-2-yl)butyl)(methyl)amino)methyl)-cyclopentane-1,2-diol] |
| < 100 nM | CC(C)N(CCCCc1nc2cc(Cl)c(Cl)cc2[nH]1)C[C@H]1C[C@@H](n2ccc3c(NC4CC4)ncnc32)[C@H](O)[C@@H]1O [Compound 9, (1R,2S,3R,5R)-3-(4-(cyclopropylamino)-7H-pyrrolo[2,3-d]pyrimidin-7-yl)-5-(((4-(5,6-dichloro-1H-benzo[d]imidazol-2-yl)butyl)(isopropyl)amino)methyl)-cyclopentane-1,2-diol trihydrochloride] |
| < 100 nM | CN(CCCNC(=O)Nc1ccc(C(C)(C)C)cc1)C[C@H]1C[C@@H](n2cnc3c(N)ncnc32)[C@H](O)[C@@H]1O [Compound 10, 1-(3-((((1R,2R,3S,4R)-4-(6-amino-9H-purin-9-yl)-2,3-dihydroxycyclopentyl)methyl)(meth-yl)amino)propyl)-3-(4-(tert-butyl)phenyl)urea] |
| < 1000 nM | CC(C)(C)c1ccc2[nH]c(CCCCN(C[C@H]3C[C@@H](n4ccc5c(NC6CC6)ncnc54)[C@H](O)[C@@H]3O)S(C)(=O)=O)nc2c1 [Compound 11, N-(4-(5-(tert-butyl)-1H-benzo[d]imidazol-2-yl)butyl)-N-(((1R,2R,3S,4R)-4-(4-(cyclopropylamino)-7H-pyrrolo[2,3-d]pyrimidin-7-yl)-2,3-dihydroxycyclopentyl)methyl)-methanesulfonamide] |
| < 1000 nM | CS(=O)(=O)N(CCCCc1nc2cc(C(F)(F)F)c(Cl)cc2[nH]1)C[C@H]1C[C@@H](n2ccc3c(NC4CC4)ncnc32)[C@H](O)[C@@H]1O [Compound 12, N-(4-(6-chloro-5-(trifluoromethyl)-1H-benzo[d]imidazol-2-yl)butyl)-N-(((1R,2R,3S,4R)-4-(4-(cyclopropylamino)-7H-pyrrolo[2,3-d]pyrimidin-7-yl)-2,3-dihydroxycyclopentyl)methyl)-methanesulfonamide] |
| < 100 nM | CN(CCCCc1nc2cc(C(F)(F)F)c(Cl)cc2[nH]1)C[C@H]1C[C@@H](n2ccc3c(N)ncnc32)[C@H](O)[C@@H]1O [Compound 13, (1R,2S,3R,5R)-3-(4-amino-7H-pyrrolo[2,3-d]pyrimidin-7-yl)-5-(((4-(6-chloro-5-(trifluoromethyl)-1H-benzo[d]imidazol-2-yl)butyl)(methyl)amino)methyl)-cyclopentane-1,2-diol] |
| < 100 nM | CC(C)N(CCCCc1nc2cc(C(F)(F)F)c(Cl)cc2[nH]1)C[C@H]1C[C@@H](n2ccc3c(N)ncnc32)[C@H](O)[C@@H]1O [Compound 14, (1R,2S,3R,5R)-3-(4-amino-7H-pyrrolo[2,3-d]pyrimidin-7-yl)-5-(((4-(6-chloro-5-(trifluoromethyl)-1H-benzo[d]imidazol-2-yl)butyl)(isopropyl)amino)methyl)-cyclopentane-1,2-diol] |
| < 1000 nM | CS(=O)(=O)N(CCCCc1nc2cc(C(F)(F)F)c(Cl)cc2[nH]1)C[C@H]1C[C@@H](n2ccc3c(N)ncnc32)[C@H](O)[C@@H]1O [Compound 15, N-(((1R,2R,3S,4R)-4-(4-amino-7H-pyrrolo[2,3-d]pyrimidin-7-yl)-2,3-dihydroxycyclopentyl)methyl)-N-(4-(6-chloro-5-(trifluoromethyl)-1H-benzo[d]imidazol-2-yl)butyl)methanesulfonamide] |
| < 10000 nM | CS(=O)(=O)N(CCCCc1nc2cc(Cl)c(Cl)cc2[nH]1)C[C@H]1C[C@@H](n2ccc3c(NC4CC4)ncnc32)[C@H](O)[C@@H]1O [Compound 16, N-(((1R,2R,3S,4R)-4-(4-(cyclopropylamino)-7H-pyrrolo-[2,3-d]pyrimidin-7-yl)-2,3-dihydroxycyclopentyl)methyl)-N-(4-(5,6-dichloro-1H-benzo[d]imidazol-2-yl)butyl)methanesulfonamide] |
| < 10000 nM | CS(=O)(=O)N(CCCCc1nc2cc(C(F)(F)F)ccc2[nH]1)C[C@H]1C[C@@H](n2ccc3c(NC4CC4)ncnc32)[C@H](O)[C@@H]1O [Compound 17, N-(((1R,2R,3S,4R)-4-(4-(cyclopropylamino)-7H-pyrrolo-[2,3-d]pyrimidin-7-yl)-2,3-dihydroxycyclopentyl)methyl)-N-(4-(5-(trifluoromethyl)-1H-benzo[d]imidazol-2-yl)butyl)methanesulfonamide] |
